In the experiment the target is T1, human α7 nAChR (Homo sapiens, UniProt P36544).
T1 construct: expressed in transfected cells
As to the kind of experiment: Evaluation of PAM activity with human α7 nACh receptor stably expressing cells (aequorin luminescence, FDSS7000). It is filed as cell-based. The note with it: for activity at 1 µM: 1 μM test compound (values marked *, footnote of Table 25), read-out: α7PAM (%) @1 μM; for activity at 10 µM: read-out: α7PAM (%) @10 μM; for PAM activity for α7 nAChR (in words): comparison across Tables 18 to 25. As for the experimental part: Evaluation of PAM activity with human α7 nACh receptor stably expressing cells
(1) Human α7 nAChR stably expressing cells
Human α7 nAChR stably expressing cells were generated and cultured.
Thus, the cells were subcultured.
Seven days after subculturing, the cells were treated with TrypLE Express to collect them when they were about 80% confluent.
On the next day after seeding, Viviren (cat#E649X, Promega, Madison, Wis., USA) was added to the medium so that the final concentration could be 4 μM (15 μL/well). The plates were centrifuged and then placed in the dark for 4 hours at room temperature.
(2) Preparation of the Test Samples
Each of the test compounds was dissolved in DMSO to prepare each test sample at a concentration of 1000-fold the final concentration. To the solution was added Hanks/20 mM HEPES/0.2% BSA (cat#A3803, Sigma, St. Louis, Mo., USA), and the concentration was adjusted to 6-fold the final concentration.
(3) Evaluation of PAM Activity
FDSS7000 (Hamamatsu Photonics) was used to detect the luminescence signal evoked by α7 nAChR stimulation. The cells and a luminescent substrate were put on a plate, and the test sample was added thereto. […] The ratio of the RLU (Max-Min) of the test-compound-containing wells to that of the control wells was defined as PAM activity.

Setting [1] is: ACh at EC20, ratio of RLU (Max-Min) to control wells.
[2] abbreviates: 10 μM test compound, ACh at EC20, ratio of RLU (Max-Min) to control wells.

T1 sequence (P36544 23-502): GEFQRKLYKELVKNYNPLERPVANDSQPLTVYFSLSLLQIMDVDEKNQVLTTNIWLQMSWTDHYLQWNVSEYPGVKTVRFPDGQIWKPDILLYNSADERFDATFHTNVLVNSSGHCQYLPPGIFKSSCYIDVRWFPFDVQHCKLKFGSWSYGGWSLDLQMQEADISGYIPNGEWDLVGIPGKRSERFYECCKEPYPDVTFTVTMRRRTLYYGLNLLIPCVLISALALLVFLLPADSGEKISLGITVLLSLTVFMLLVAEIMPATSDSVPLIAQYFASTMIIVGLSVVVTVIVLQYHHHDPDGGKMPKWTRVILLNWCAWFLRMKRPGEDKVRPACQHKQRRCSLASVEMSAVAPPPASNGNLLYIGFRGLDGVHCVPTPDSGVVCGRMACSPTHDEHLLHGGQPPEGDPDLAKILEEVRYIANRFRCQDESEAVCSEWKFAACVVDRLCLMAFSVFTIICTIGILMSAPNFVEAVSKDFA

In the case of `O=C(NC1CCC1)N1CCC(n2cnc(-c3ccccc3)c2Cl)CC1` [Example 79], the activity at 1 µM under setting [1] worked out at 112%.
In the case of `O=C(NC1CCCC1)N1CCC(n2cnc(-c3cccc(F)c3)c2Cl)CC1` [Example 83], under setting [2], the activity at 10 µM came to 671%.
With `O=C(NC1CCCCC1)N1CCC(n2cnc(-c3cccc(F)c3)c2Cl)CC1` [Example 84], under setting [2], the activity at 10 µM worked out at 747%.
Consider `CC(C)(C)NC(=O)N1CCC(n2cnc(-c3ccccc3F)c2Cl)CC1` [Example 92], for which the activity at 10 µM under setting [2] was determined as 758%.
Regarding `O=C(NC1CCOCC1)N1CCC(n2cnc(-c3ccc(C(F)(F)F)cc3)c2Cl)CC1` [Example 93], the “PAM activity for α7 nAChR (in words)” value was “stronger PAM activity than others”.
For the molecule `O=C(NC1CCOCC1)N1CCC(n2cnc(-c3cccc(C(F)(F)F)c3)c2Cl)CC1` [Example 94, 4-{5-chloro-4-[3-(trifluoromethyl)phenyl]-1H-imidazol-1-yl}-N-(tetrahydro-2H-pyran-4-yl)piperidine-1-carboxamide], the activity at 10 µM under setting [2] turned out to be 981%.
Take `N#Cc1c(-c2ccccc2)ncn1C1CCN(C(=O)NC2CCC(F)(F)CC2)CC1` [Example 99]: the “PAM activity for α7 nAChR (in words)” value was “stronger PAM activity than others”.
Take `CC(C)(C)NC(=O)N1CCC(n2cnc(-c3ccccc3)c2C#N)CC1` [Example 100]: the activity at 10 µM under setting [2] came out at 708%.
Regarding `Cc1c(-c2ccccc2)ncn1C1CCN(C(=O)NC2CCCCC2)CC1` [Example 102], the activity at 10 µM under setting [2] was 641%.
On to `CCc1c(-c2ccccc2)ncn1C1CCN(C(=O)NC2CCCCC2)CC1` [Example 103], for which the activity at 10 µM under setting [2] amounted to 452%.
In the case of `O=C(NC1CCCCC1)N1CCC(n2cnc(-c3ccccc3)c2C2CC2)CC1` [Example 108], the activity at 10 µM under setting [2] was determined as 576%.
Take `CC(C)(C)NC(=O)N1CCC(n2cnc(-c3ccccc3)c2C2CC2)CC1` [Example 109]: under setting [2], the activity at 10 µM was determined as 457%.
Consider `O=C(NC1CCCCC1)N1CCC(n2cnc(-c3ccccc3)c2CO)CC1` [Example 110], for which the activity at 10 µM under setting [2] amounted to 201%.
For the molecule `CC(C)(C)NC(=O)N1CCC(n2cnc(-c3ccccc3)c2CO)CC1` [Example 111], the activity at 10 µM under setting [2] is 153%.
For `O=C(NC1CCC(F)(F)CC1)N1CCC(n2cnc(-c3ccccc3)c2C2CC2)CC1` [Example 113], the activity at 10 µM under setting [2] turned out to be 882%.
In the case of `Cc1nc(-c2ccccc2)cn1C1CCN(C(=O)NC2CCCCC2)CC1` [Example 114], the activity at 10 µM under setting [2] was found to be 133%.
The same measure, in the same setting: for `O=C(NC1CCCCC1)N1CCC(n2cc(-c3ccccc3)nc2Cl)CC1` [Example 116] the value was 131%; for `O=C(NC1CCCCC1)N1CCC(n2cnc(-c3ccc(Cl)s3)c2)CC1` [Example 117], 853%.
With `O=C(NC1CCC(F)(F)CC1)N1CCC(n2cnc(-c3ccc(Cl)s3)c2)CC1` [Example 118], the “PAM activity for α7 nAChR (in words)” value is reported as “stronger PAM activity than others”.
Take `O=C(NC1CCC(F)(F)CC1)N1CCC(n2cnc(-c3ccnc(Cl)c3)c2)CC1` [Example 120]: the activity at 10 µM under setting [2] is 208%.
On to `O=C(NC1CCCC1)N1CCC(n2cnc(-c3cccs3)c2)CC1` [Example 121], for which the activity at 10 µM under setting [2] was determined as 201%.
For the molecule `Cc1ccc(-c2cn(C3CCN(C(=O)NC4CCCC4)CC3)cn2)s1` [Example 122], the activity at 10 µM under setting [2] worked out at 459%.
For `O=C(NC1CCCCC1)N1CCC(n2cnc(-c3cccs3)c2)CC1` [Example 123], under setting [2], the activity at 10 µM is 345%.
Turning to `Cc1ccc(-c2cn(C3CCN(C(=O)NC4CCCCC4)CC3)cn2)s1` [Example 124], the activity at 10 µM under setting [2] came out at 572%.
For the molecule `O=C(NC1CCC(F)(F)CC1)N1CCC(n2cnc(-c3cccs3)c2)CC1` [Example 125], the activity at 10 µM under setting [2] stood at 466%.
With `Cc1ccc(-c2cn(C3CCN(C(=O)NC4CCC(F)(F)CC4)CC3)cn2)s1` [Example 126], the activity at 10 µM under setting [2] was 780%.
For the molecule `COC1CCC(NC(=O)N2CCC(n3cnc(-c4cccs4)c3)CC2)CC1` (stereo not shown) [Example 127], under setting [2], the activity at 10 µM was determined as 170%.
Turning to `COC1CCC(NC(=O)N2CCC(n3cnc(-c4ccc(C)s4)c3)CC2)CC1` (stereo not shown) [Example 128], the activity at 10 µM under setting [2] is 188%.
For the molecule `O=C(NC1CCCCC1)N1CCC(n2cnc(-c3cccs3)c2)CC1` [Example 129], the “α7PAM (%) @10 μM” value under setting [2] was determined as 330%.
Take `O=C(NC1CCCCC1)N1CCC(n2cnc(-c3ccc(C(F)(F)F)cn3)c2)CC1` [Example 131]: the activity at 10 µM under setting [2] worked out at 738%.
Still for that read-out and setting: under `O=C(NC1CCCCC1)N1CCC(n2cnc(-c3ccccn3)c2)CC1` [Example 132] stands 151%.
On to `O=C(NC1CCCCC1)N1CCC(n2cnc(-c3cccnc3)c2)CC1` [Example 133], for which the activity at 10 µM under setting [2] turned out to be 101%.
For the molecule `O=C(NC1CCCCC1)N1CCC(n2cnc(-c3ccccn3)c2Cl)CC1` [Example 134], under setting [2], the activity at 10 µM came out at 171%.
Consider `O=C(NC1CCCCC1)N1CCC(n2cnc(-c3ccncc3)c2Cl)CC1` [Example 135], for which the activity at 10 µM under setting [2] turned out to be 154%.
As to `O=C(NC1CCC(F)(F)CC1)N1CCC(n2cnc(-c3ccncc3)c2Cl)CC1` [Example 136], the activity at 10 µM under setting [2] turned out to be 309%.
The same measure, in the same setting: under `O=C(NC1CCC(F)(F)CC1)N1CCC(n2cnc(-c3ccccn3)c2Cl)CC1` [Example 137] stands 328%.
On the same count and under the same terms, for `O=C(C1CCC(F)(F)CC1)N1CCC(n2cnc(-c3ccc(C(F)(F)F)cc3)c2)CC1` [Example 138] the value was 597%; for `O=C(C1CCC(F)(F)CC1)N1CCC(n2cnc(-c3ccc(F)c(F)c3)c2)CC1` [Example 139], 274%.
For the molecule `O=C(c1ccc(F)cn1)N1CCC(n2cnc(-c3ccc(F)c(F)c3)c2)CC1` [Example 140], under setting [2], the activity at 10 µM was found to be 127%.
Consider `O=C(c1ccc(F)cn1)N1CCC(n2cnc(-c3ccc(Cl)cc3)c2)CC1` [Example 141], for which, under setting [2], the activity at 10 µM is 253%.
As for `COC1CCC(C(=O)N2CCC(n3cnc(-c4ccccc4)c3)CC2)CC1` (stereo not shown) [Example 142], the activity at 10 µM under setting [2] stood at 163%.
As to `O=C(C1CCC(F)(F)CC1)N1CCC(n2cnc(-c3cccc(F)c3)c2)CC1` [Example 144], under setting [2], the activity at 10 µM stood at 346%.
Turning to `O=C(C1CCC(F)(F)CC1)N1CCC(n2cnc(-c3cccc(OC(F)F)c3)c2)CC1` [Example 145], the activity at 10 µM under setting [2] turned out to be 363%.
In the case of `O=C(C1CCC(F)(F)CC1)N1CCC(n2cnc(-c3ccc(OC(F)F)cc3)c2)CC1` [Example 146], the activity at 10 µM under setting [2] was 572%.
As to `CCOc1ccc(-c2cn(C3CCN(C(=O)C4CCC(F)(F)CC4)CC3)cn2)cc1` [Example 147], the activity at 10 µM under setting [2] is 484%.
`COc1ccc(-c2ncn(C3CCN(C(=O)C4CCC(F)(F)CC4)CC3)c2Cl)cc1` [Example 148]: the activity at 10 µM under setting [2] turned out to be 700%.
As for `O=C(C1CCC(F)(F)CC1)N1CCC(n2cnc(-c3ccc(F)cc3)c2Cl)CC1` [Example 149], the activity at 10 µM under setting [2] stood at 862%.
On to `O=C(C1CCOCC1)N1CCC(n2cnc(-c3cccc(F)c3)c2Cl)CC1` [Example 150], for which, under setting [2], the activity at 10 µM was found to be 137%.
For `O=C(C1CCOCC1)N1CCC(n2cnc(-c3ccc(F)cc3)c2Cl)CC1` [Example 151], the activity at 10 µM under setting [2] was 155%.
Regarding `O=C(C1CCC(F)(F)CC1)N1CCC(n2cnc(-c3ccccc3)c2Cl)CC1` [Example 152], the activity at 10 µM under setting [2] stood at 945%.
Take `N#Cc1c(-c2ccccc2)ncn1C1CCN(C(=O)C2CCCCC2)CC1` [Example 153]: the activity at 10 µM under setting [2] is 538%.
Regarding `N#Cc1c(-c2ccc(F)cc2)ncn1C1CCN(C(=O)C2CCC(F)(F)CC2)CC1` [Example 154, 1-{1-[(4,4-difluorocyclohexyl)carbonyl]piperidin-4-yl}-4-(4-fluorophenyl)-1H-imidazole-5-carbonitrile], the activity at 10 µM under setting [2] is 644%.
Same read-out and setting: for `N#Cc1c(-c2cccc(F)c2)ncn1C1CCN(C(=O)C2CCC(F)(F)CC2)CC1` [Example 155] the value was 252%; for `N#Cc1c(-c2ccccc2F)ncn1C1CCN(C(=O)C2CCC(F)(F)CC2)CC1` [Example 156, 1-{1-[(4,4-difluorocyclohexyl)carbonyl]piperidin-4-yl}-4-(2-fluorophenyl)-1H-imidazole-5-carbonitrile], 522%.
As to `N#Cc1c(-c2ccc(C(F)(F)F)cc2)ncn1C1CCN(C(=O)C2CCC(F)(F)CC2)CC1` [Example 157], the activity at 10 µM under setting [2] worked out at 236%.
Same read-out and setting: for `N#Cc1c(-c2cccc(C(F)(F)F)c2)ncn1C1CCN(C(=O)C2CCC(F)(F)CC2)CC1` [Example 158] the value was 132%.
Turning to `N#Cc1c(-c2ccc(Cl)cc2)ncn1C1CCN(C(=O)C2CCC(F)(F)CC2)CC1` [Example 159], under setting [2], the activity at 10 µM came out at 692%.
Same read-out and setting: under `N#Cc1c(-c2cccc(Cl)c2)ncn1C1CCN(C(=O)C2CCC(F)(F)CC2)CC1` [Example 160] stands 367%.
For `CC(C)(C)C(=O)N[C@H]1CC[C@@H](n2cnc(-c3ccc(C(F)(F)F)cc3)c2)CC1` [Example 161], the activity at 1 µM under setting [1] worked out at 233%.
Same read-out and setting: under `O=C(N[C@H]1CC[C@@H](n2cnc(-c3ccc(C(F)(F)F)cc3)c2)CC1)C1CCC(F)(F)CC1` [Example 162] stands 323%.
Regarding `CC(C)(C)C(=O)N[C@H]1CC[C@@H](n2cnc(-c3ccccc3)c2Cl)CC1` [Example 167], the activity at 10 µM under setting [2] is 221%.

These data come from patent US20150259344A1, “IMIDAZOLE DERIVATIVE” (DAINIPPON SUMITOMO PHARMA CO., LTD., priority 2012, published 2015).
